Experimental data as given in article PMC7144330, “2-Thiopyrimidine/chalcone hybrids: design, synthesis, ADMET prediction, and anticancer evaluation as STAT3/STAT5a inhibitors” (Journal of Enzyme Inhibition and Medicinal Chemistry, 2020).
Read-outs that look alike come from different tables or passages of the source.

Legend:
MCF-7 = experiment: MTT cytotoxic assay, breast MCF-7 cell line; assay type: cell-based, human
Protocol: (§1) To investigate cytotoxic activity of the final target compounds 9a–r, MTT assay was performed. Three different cell lines were used, leukaemia (K-562), breast (MCF-7) and colon (HT-29) cell lines. Cisplatin and erlotinib were the reference drugs used in this study.
(§2) All target compounds 9a–r were screened against three different cancer cell lines, leukaemia (K-562), breast (MCF-7), and colon (HT-29). MTT assay was used. Both cisplatin and erlotinib were used as the reference drugs. Cytotoxicity results are recorded in Table 1.

K-562 = experiment: MTT cytotoxic assay, leukaemia K-562 cell line; assay type: cell-based
Protocol: as §1, §2

HT-29 = experiment: MTT cytotoxic assay, colon HT-29 cell line; assay type: cell-based; conditions: read-out: (IC50 μM)±SD HT-29
Protocol: as §1, §2

[1] = Homo sapiens, MCF7, read-out: (IC50 μM)±SD MCF-7
[2] = Homo sapiens, K562, read-out: (IC50 μM)±SD K-562

SMILES	melting point	IC50 (MCF-7; read-out: (IC50 μM)±SD MCF-7)	IC50 (K-562; read-out: (IC50 μM)±SD K-562)	IC50 (HT-29)	IC50 (MCF-7; [1])	IC50 (K-562; [2])	IC50 (HT-29; Homo sapiens)
N.N.[Cl][Pt][Cl] [Cisplatin, reference compound]	–	6.62 ± 0.29 µM	2.31 ± 0.09 µM	1.12 ± 0.06 µM	–	–	–
COc1ccc(/C=C/C(=O)c2ccc(NC(=O)CSc3nc(-c4ccc(C)cc4)cc(-c4ccc(Cl)cc4)n3)cc2)cc1 [Compound 9j, (ZE)-2-[4-(4-Chlorophenyl)-6-p-tolylpyrimidin-2-ylthio]-N-{4-[3-(4-methoxyphenyl)acryloyl]phenyl}acetamide]	242 to 244 °C	–	–	–	6.26 ± 0.24 µM	4.26 ± 0.06 µM	6.26 ± 0.34 µM
COc1ccc(-c2cc(-c3ccc(C)cc3)nc(SCC(=O)Nc3ccc(C(=O)/C=C/c4ccc(OC)c(OC)c4)cc3)n2)cc1 [Compound 9b, (ZE)-N-{4-[3-(3,4-Dimethoxyphenyl)acryloyl]phenyl}-2-[4-(4-methoxyphenyl)-6-p-tolylpyrimidin-2-ylthio]acetamide]	165 to 167 °C	–	–	–	22.4 ± 1.57 µM	3.62 ± 0.08 µM	16.4 ± 0.76 µM
COc1ccc(-c2cc(-c3ccc([N+](=O)[O-])cc3)nc(SCC(=O)Nc3ccc(C(=O)/C=C/c4ccc(OC)c(OC)c4)cc3)n2)cc1 [Compound 9e, (ZE)-N-{4-[3-(3,4-Dimethoxyphenyl)acryloyl]phenyl}-2-[4-(4-methoxyphenyl)-6-(4-nitrophenyl)pyrimidin-2-ylthio]-acetamide]	225 to 227 °C	–	–	–	18.7 ± 0.92 µM	7.05 ± 0.28 µM	7.31 ± 0.36 µM
COc1ccc(/C=C/C(=O)c2ccc(NC(=O)CSc3nc(-c4ccc(Cl)cc4)cc(-c4ccc(OCCCl)cc4)n3)cc2)cc1 [Compound 9p]	136 to 138 °C	–	–	–	11.6 ± 0.49 µM	1.74 ± 0.04 µM	11.6 ± 0.63 µM
COc1ccc(/C=C/C(=O)c2ccc(NC(=O)CSc3nc(-c4ccc(C)cc4)cc(-c4ccc(Cl)cc4)n3)cc2)cc1OC [Compound 9k, (ZE)-2-[4-(4-Chlorophenyl)-6-p-tolylpyrimidin-2-ylthio]-N-{4-[3-(3,4-dimethoxyphenyl)acryloyl]phenyl}acetamide]	144 to 146 °C	–	–	–	28.7 ± 1.39 µM	9.95 ± 0.29 µM	5.61 ± 0.18 µM
COc1ccc(/C=C/C(=O)c2ccc(NC(=O)CSc3nc(-c4ccc(Cl)cc4)cc(-c4ccc([N+](=O)[O-])cc4)n3)cc2)cc1 [Compound 9m, (ZE)-2-[4-(4-Chlorophenyl)-6-(4-nitrophenyl)pyrimidin-2-ylthio]-N-{4-[3-(4-methoxyphenyl)acryloyl]phenyl}acetamide]	190 to 192 °C	–	–	–	3.9 ± 0.09 µM	3.86 ± 0.14 µM	7.9 ± 0.22 µM
C#Cc1cccc(Nc2ncnc3cc(OCCOC)c(OCCOC)cc23)c1 [Erlotinib, reference compound]	–	–	–	–	10.6 ± 0.58 µM	9.85 ± 0.51 µM	9.2 ± 0.41 µM

Second part, led by results:

melting point	SMILES	IC50 (MCF-7; read-out: (IC50 μM)±SD MCF-7)	IC50 (K-562; read-out: (IC50 μM)±SD K-562)	IC50 (HT-29)	IC50 (MCF-7; [1])	IC50 (K-562; [2])	IC50 (HT-29; Homo sapiens)
268 to 270 °C	COc1cc(/C=C/C(=O)c2ccc(NC(=O)CSc3nc(-c4ccc(Cl)cc4)cc(-c4ccc([N+](=O)[O-])cc4)n3)cc2)cc(OC)c1OC [Compound 9o, (ZE)-2-[4-(4-Chlorophenyl)-6-(4-nitrophenyl)pyrimidin-2-ylthio]-N-{4-[3-(3,4,5-trimethoxyphenyl)acryloyl]phenyl}acetamide]	–	–	–	3.62 ± 0.084 µM	12.3 ± 0.72 µM	3.62 ± 0.08 µM
280 to 282 °C	COc1ccc(/C=C/C(=O)c2ccc(NC(=O)CSc3nc(-c4ccc(OC)cc4)cc(-c4ccc(OCCCl)cc4)n3)cc2)cc1 [Compound 9g, (ZE)-2-{4-[4-(2-Chloroethoxy)phenyl]-6-(4-methoxyphenyl)pyrimidin-2-ylthio}-N-{4-[3-(4-methoxyphenyl)acryloyl]phenyl}acetamide]	–	–	–	10.4 ± 0.64 µM	3.17 ± 0.11 µM	10.6 ± 0.47 µM
195 to 197 °C	COc1ccc(-c2cc(-c3ccc(C)cc3)nc(SCC(=O)Nc3ccc(C(=O)/C=C/c4cc(OC)c(OC)c(OC)c4)cc3)n2)cc1 [Compound 9c, (ZE)-2-[4-(4-Methoxyphenyl)-6-p-tolylpyrimidin-2-ylthio]-N-{4-[3-(3,4,5-trimethoxyphenyl)acryloyl]phenyl}acetamide]	–	–	–	4.25 ± 0.13 µM	11.42 ± 0.04 µM	8.7 ± 0.28 µM
234 to 236 °C	COc1cc(/C=C/C(=O)c2ccc(NC(=O)CSc3nc(-c4ccc(C)cc4)cc(-c4ccc(Cl)cc4)n3)cc2)cc(OC)c1OC [Compound 9l, (ZE)-2-[4-(4-Chlorophenyl)-6-p-tolylpyrimidin-2-ylthio]-N-{4-[3-(3,4,5-trimethoxyphenyl)acryloyl]phenyl}acetamide]	–	–	–	13.5 ± 0.62 µM	42.6 ± 1.99 µM	2.37 ± 0.07 µM
210 to 212 °C	COc1ccc(/C=C/C(=O)c2ccc(NC(=O)CSc3nc(-c4ccc(Cl)cc4)cc(-c4ccc(OCCCl)cc4)n3)cc2)cc1OC [Compound 9q]	–	–	–	6.81 ± 0.25 µM	5.77 ± 0.16 µM	6.06 ± 0.29 µM
116 to 118 °C	COc1ccc(-c2cc(-c3ccc(OCCCl)cc3)nc(SCC(=O)Nc3ccc(C(=O)/C=C/c4cc(OC)c(OC)c(OC)c4)cc3)n2)cc1 [Compound 9i, (ZE)-2-{4-[4-(2-Chloroethoxy)phenyl]-6-(4-methoxyphenyl)pyrimidin-2-ylthio}-N-{4-[3-(3,4,5-trimethoxyphenyl)acryloyl]phenyl}acetamide]	–	–	–	11.5 ± 0.81 µM	9.71 ± 0.41 µM	11.5 ± 0.23 µM
135 to 137 °C	COc1ccc(-c2cc(-c3ccc(OCCCl)cc3)nc(SCC(=O)Nc3ccc(C(=O)/C=C/c4ccc(OC)c(OC)c4)cc3)n2)cc1 [Compound 9h, (ZE)-2-{4-[4-(2-Chloroethoxy)phenyl]-6-(4-methoxyphenyl)pyrimidin-2-ylthio}-N-{4-[3-(3,4-dimethoxyphenyl)acryloyl]phenyl}acetamide]	–	–	–	7.7 ± 0.32 µM	7.07 ± 0.31 µM	18.8 ± 0.88 µM
